Assay results: PMC12722920, “Pharmacokinetics and pharmacodynamics of cannabigerol (CBG) in the C57BL/6Crl mouse” (Frontiers in Pharmacology, 2025)

Assays:
humans = test system: humans; design: method as in Cuttler et al., 2024; conditions: oral 20 mg CBG; ref Cuttler et al., 2024; cited from earlier work
male mice = test system: male mice; design: method as in Zagzoog et al., 2020; conditions: i.p., 15 min post-injection; ref Zagzoog et al., 2020; cited from earlier work
CD-1 mice = test system: CD-1 mice; design: method as in Schwarz et al., 2024; conditions: 100 mg/kg i.p., not at 10 or 320 mg/kg, ref Schwarz et al., 2024, cited from earlier work
[1] = Phase I pharmacokinetic profile: blood concentration vs time by HPLC-MS/MS after a single 10 mg/kg dose; format: in vivo, C57BL/6Crl mice; conditions: for k (terminal phase rate constant): noncompartmental
Description: In phase I, male mice were randomly assigned to Groups A, B, C, or D. Interventions per group are specified in Figure 2. Each group was divided into 3 cohorts and randomly assigned to receive p.o., i.p., or i.v. administration. Oral (p.o.) administration cohorts received 10 mg/kg CBG in olive oil with 10% DMSO, and i.p. and i.v. cohorts received 10 mg/kg CBG with 10% DMSO and vehicle (1:1:18 ethanol: kolliphor: saline). PK profiles were developed for blood collection at 10 min, 30 min, 1 h, 3 h, 6 h, 12 h, 18 h, and 24 h. Blood collection was performed using a destructive sampling method, with each mouse providing blood at two time point collections. The initial blood draw aimed to obtain a 100 µL blood sample from the left leg lateral saphenous vein of the mouse, and the second blood draw from the same mouse involved the administration of isoflurane (3%–5%) followed by exsanguination via cardiac puncture. Group A was subjected to two time point blood draws, at 10 min and at 30 min. Groups B-D were first subjected to the cannabinoid-induced tetrad assay, then two time point blood draws. Due to time constraints, the open field test (OFT) was not performed in Phase I.
Blood collection from the saphenous leg vein was drawn into a RAM Scientific Safe-T-Fill™ Capillary blood collection system containing heparin and lithium (Waltham, Massachusetts, U.S). Blood collection from the cardiac puncture was drawn into a syringe and transferred to a 2 mL blood collection tube containing heparin and lithium. Samples were immediately placed on ice, transferred to LoBind® tubes as quickly as possible, and then stored at −80 °C. The blood concentrations of CBG were determined using High-Performance Liquid Chromatography-Tandem Mass Spectrometry (HPLC-MS/MS).
The PK parameters for CBG were determined by GraphPad Prism (v. 10.2.3). Linear regression analysis natural log of the concentration versus time curve was utilized to derive the terminal phase rate constant (k), from which the terminal phase half-life (t1/2) was calculated using the ratio (0.693/k). For both p.o. and i.p. administration, the Cmax was obtained directly from visual inspection of the blood concentration versus time profiles. For the purposes of this study, Tmax refers to the time at which Cmax was reported. The log-linear trapezoidal method was used to calculate the total area under the curve (AUC) of the average blood concentrations versus time profile with extrapolation to infinity, where the tail of the AUC (i.e., last concentration extrapolated to infinity) was calculated as the ratio Cp,last/k. Bioavailability was estimated by dividing the mean total AUC∞ for each route of administration by the total AUC observed for each compound following i.v. administration (where F = 100%, by definition). Systemic clearance (ClS) was calculated as the ratio Dose i.v. /AUC ∞ . The apparent volume of distribution (Vd) was calculated as Dose i.v. /(k × AUC ∞ ).
HPLC-MS/MS was used to quantify CBG in the blood using a 1,260 Agilent (Agilent Technologies Canada, Mississauga, ON) High Performance Liquid Chromatography (HPLC) system connected to an AB Sciex 4,000 Hybrid Triple Quadruple Linear Ion Trap Mass Spectrometer (QTRAP) equipped with a Turboionspray™ interface (AB Sciex, Concord, ON). The analytical method was developed and validated for mouse blood. An Infinity lab Phenyl Hexyl column (4.6 × 12.5 mm, 5 μm) and guard column (4.6 × 12.5 mm, 5 μm) were used to separate compounds, and the temperature was set to 50 °C.

C57BL/6Crl mice = test: Cannabinoid tetrad: internal body temperature (rectal thermometer); format: in vivo; conditions: for ED50: Mus musculus, iv
[2] = Phase II blood concentration 10 min after i.v. administration (HPLC-MS/MS)
male Sprague Dawley rats = test system: male Sprague Dawley rats; design: method as in Jenkins et al., 2023; conditions: acute oral 100 mg/kg, 30 min post-administration; ref Jenkins et al., 2023; cited from earlier work
[3] = 10 mg/kg i.v., male mice, blood
[4] = C57BL/6Crl, mouse, whole blood, ip, 10 mg/kg i.p., male mice, blood
[5] = C57BL/6Crl, mouse, whole blood, iv, 10 mg/kg i.v., male mice, blood
[6] = C57BL/6Crl, mouse, whole blood, po, 10 mg/kg p.o., male mice, blood

Q: Which results are given for CCCCCc1cc(O)c(C/C=C(\C)CCC=C(C)C)c(O)c1 [CBG, cannabigerol]?
A: reduction in anxiety levels from baseline (humans): 26.5%; anti-nociceptive effect (male mice): evoked an anti-nociceptive effect; anti-nociception (CD-1 mice; 20 min post-injection): anti-nociception; hypothermia (CD-1 mice; 30 min post-injection): resulted in hypothermia; p.o. Cmax as percent of i.p. Cmax ([1]; 10 mg/kg CBG, male mice): 2%; k (terminal phase rate constant) ([1]; 10 mg/kg i.p., male mice, blood): 0.069 h⁻¹; α [1, 3]: 1.016 h⁻¹; k (terminal phase rate constant) [1, 3]: 0.0698 h⁻¹; AUC(0-inf) [1, 4]: 1170 ng·h/mL; Cmax [1, 4]: 516 ng/mL; Tmax [1, 4]: 0.5 h; half-life [1, 4]: 10 h; AUC(0-inf) [1, 5]: 2800 ng·h/mL; half-life [1, 5]: 9.9 h; clearance ([1]; C57BL/6Crl, mouse, whole blood, iv, 10 mg/kg i.v., male mice, read-out: ClS (systemic clearance)): 59.4 mL/min/kg; Vd ([1]; C57BL/6Crl, mouse, whole blood, iv, 10 mg/kg i.v., male mice, read-out: Vd (apparent volume of distribution)): 51.1 L/kg; Cmax [1, 6]: 10.5 ng/mL; Tmax [1, 6]: 3 h; concentration at 10 min ([1]; male, C57BL/6Crl, mouse, whole blood, iv, 10 mg/kg, i.v., males, read-out: C at 10 min (blood concentration 10 min post-administration)): 2840 ng/mL; body temperature vs vehicle (C57BL/6Crl mice; 10 mg/kg i.p. or p.o., male mice, 15 min post-injection): significant increase in temperature; body temperature vs vehicle (C57BL/6Crl mice; 10 mg/kg, all routes (i.v. 15 min, i.p. 25 min, p.o. 175 min), male and female mice): decreased body temperature compared to vehicle; hypothermia, dose-response (C57BL/6Crl mice; 1, 3, 10 or 30 mg/kg i.v., male and female mice): produced a modest effect but only at the highest dose tested, 30 mg/kg; ED50 (C57BL/6Crl mice; 0.25 h, both sexes, 15 min post-administration): > 30 mg/kg; ED50 (C57BL/6Crl mice; males): > 30 mg/kg; effect on body temperature, dose-response (C57BL/6Crl mice; i.v., Phase II): did not alter body temperature; mean blood concentration of CBG relative to THC ([2]; 10 mg/kg i.v., higher than THC): approximately 5 times; concentration at 10 min ([2]; both, C57BL/6Crl, mouse, whole blood, intravenous, 10 mg/kg): 2700 ng/mL; anxiolytic effects (male Sprague Dawley rats): did not produce anxiolytic effects
